# Tests used:
# [1] = tested on: PSD95 and PGP9.5 protein expression in scWAT; assay: Western blot of scWAT after daily intra-adipose CL316 243; type: in vivo; conditions: daily intra-adipose administration for 7 days
# [2] = Harrison et al., 2009; cited from earlier work
# scWAT collagen = assay: Picrosirius red staining and collagen birefringence quantification of scWAT; type: in vivo, mouse
# From the text: Intact scWAT and pgWAT depots were excised from BL6 and HET3 mice, fixed in 10% buffered formalin overnight at room temperature and embedded in paraffin. Paraffin embedded tissues were sectioned 7 μm thick. Tissue sections were deparaffinized with HistoChoice Clearing Agent (Sigma-Aldrich Cat #H2779) and hydrated in decreasing concentrations of EtOH (100%, 95% 70%, 30%, 0%). Tissues were stained in picrosirius red stain (Electron Microscopy Sciences Cat #26357) for 1 hr, washed in two changes of acidified water (5 seconds each), dehydrated in three changes of 100% EtOH, cleared in histo-grade Xylenes for 5 minutes and cover slipped using Permount mounting media (Electron Microscopy Sciences Cat #17986-01). Five representative images per tissue were captured using both brightfield and circularly polarized light to gauge collagen distribution. Total collagen was measured by first quantifying the area comprised by picrosirius red staining in the field of view using brightfield microscopy. This was then divided by the area comprised exclusively of polarized collagen fibers. […] To differentiate the relative contribution of collagen fiber thicknesses, methods were adapted from (Rich & Whittaker, 2005) for use in Fiji (Schindelin et al., 2012). Hue values used for this analysis were as follows: green (52-128), yellow (39-51), orange (10-38), and red (0-9, 230-255). Saturation was not accounted for, and brightness was thresholded at 35-255 to prevent noise from being included in pixel counts. See FIG. 11 for a schematic of this method.
# [3] = tested on: diabetic NONcNZO10/LtJ mice; conditions: 14 ppm diet-fed (Reifsnyder, Doty, & Harrison, 2014); cited from earlier work
# scWAT = assay: Hematoxylin staining of scWAT sections; type: in vivo, mouse
# From the text: Intact inguinal scWAT (ing-scWAT), axillary scWAT (ax-scWAT), and perigonadal WAT (pgWAT) depots were excised from BL6 and HET3 mice, fixed in 10% buffered formalin overnight at room temperature and embedded in paraffin. Paraffin embedded tissues were sectioned 7 μm thick. Tissue sections were deparaffinized with HistoChoice Clearing Agent and hydrated in decreasing concentrations of EtOH (100%, 95% 70%, 30%, 0%). Tissues were stained in Mayer's Hematoxylin Solution (Sigma-Aldrich Cat #MHS16) or Mayer's Hemalum Solution (Sigma-Aldrich Cat #109249) and a drop of mounting fluid was applied, and tissues were cover slipped, sealed, and imaged. Three representative images were captured per tissue per animal and cell perimeter and area was measured in Fiji (Schindelin et al., 2012).
Structure (SMILES),PGP9.5 protein expression in scWAT [1],PSD95 expression in scWAT [1],"circulating rapamycin, males versus females [2]",total increase in collagen between treatment groups (scWAT collagen; early-intervention),collagen deposition versus vehicle group (scWAT collagen; early-intervention group),"animals exhibiting severely fibrotic tissue (scWAT collagen; early-intervention, females)","animals exhibiting severely fibrotic tissue (scWAT collagen; early-intervention, males)","green collagen fibers (birefringence) (scWAT collagen; early-intervention, males)","orange collagen fibers (birefringence) (scWAT collagen; early-intervention, males)","thick collagen fibers (orange+red), share of thin:thick ratio (scWAT collagen; early-intervention, males)","thin collagen fibers, share of thin:thick ratio (scWAT collagen; early-intervention, males)",birefringence patterns (scWAT collagen; late-intervention),"total collagen (scWAT collagen; late-intervention, females)","total collagen (scWAT collagen; late-intervention, males, failed to meet statistical significance)",adipose tissue inflammation and fibrosis (scWAT collagen; overall statement),scWAT fibrosis (scWAT collagen; treatment started early in life),pancreatic fibrosis [3],"crown-like structures, lipofuscin and immune cell infiltration in scWAT (scWAT; early-intervention group (started ~30 weeks))","crown-like structures, lipofuscin and immune cell infiltration in scWAT (scWAT; late-intervention group (started ~72 weeks))"
C[C@H](Cc1ccc2c(c1)OC(C(=O)[O-])(C(=O)[O-])O2)NC[C@H](O)c1cccc(Cl)c1.[Na+].[Na+] [CL316 243],upward trend,increased,–,–,–,–,–,–,–,–,–,–,–,–,–,–,–,–,–
CO[C@H]1C[C@@H]2CC[C@@H](C)[C@@](O)(O2)C(=O)C(=O)N2CCCC[C@H]2C(=O)O[C@H]([C@H](C)C[C@@H]2CC[C@@H](O)[C@H](OC)C2)CC(=O)[C@H](C)/C=C(\C)[C@@H](O)[C@@H](OC)C(=O)[C@H](C)C[C@H](C)/C=C/C=C/C=C/1C [rapamycin],–,–,equivalent,not statistically significant,greater,3 out of 11,3 out of 8,decreased,increased,75%,25%,did not vary,no difference,possible increase,worsened,increased,caused pancreatic fibrosis,increased,not observed
